Laboratory results reported in patent publication EP1030659B1 (Warner-Lambert Company LLC, priority 1997, dated 1999).
pIC50, pKd, pKi: −log10 of the molar value. Read-outs that look alike come from different tables or passages of the source.

Legend:
[1] = test system: Male Swiss-Webster mice; assay: Locomotor stimulant effects (horizontal locomotor activity); assay type: in vivo; conditions: i.p.; for ED50: Mus musculus, ip, dose resulting in ½ the maximal stimulant effect, read-out: Stimulation Potency (ED50); for locomotor stimulant effects, time course (in words): 2-hour session; for Stimulation Efficacy: ratio of the maximal stimulant effect of the test compound to the maximal effect of (+)-amphetamine
[2] = biological target: α1-receptors; assay: Alpha-1 binding, 3H-prazocin, canine lung membranes; parameters: species or system mongrel dogs; conditions: for pKi: Ki = IC50 / 1 + I/Kd, Kd from saturation analysis, unit inferred
[3] = biological target: α2-receptors; assay: Alpha-2 binding, p-125iodoclonidine, canine brain (frontal cortex) membranes; parameters: species or system mongrel dogs; conditions: for pKi: Ki = IC50 / 1 + I/Kd, Kd from saturation analysis, unit inferred; for pIC50: inhibition of 50% of specific p-iodoclonidine binding, mean of several test samples; for pKd: canine cerebral cortex membranes
Experimental: • PULMONARY ALPHA-1 AND BETA-2 RECEPTORS. The lungs of mongrel dogs were separated from cartilaginous airways and major blood vessels, weighed, chopped and placed into 10 volumes of ice-cold buffered sucrose (50 mM Tris-HCl, pH 7.4, 1 mM EGTA, 0.32 M sucrose). The tissue was then homogenized in a type PT10/35, size 89/PTA 20S, Polytron tissue homogenizer (Kinematica, Westbury, NY). The homogenate was filtered through two layers of cheesecloth, and the filtrate was dounced three times using a 55 ml Con-Torque Potter homogenizer (Eberbach Corporation, Ann Arbor, Ml). […] The supematant was re-centrifuged at 30,000 x g for 30 minutes at 4°C and the resulting pellet was washed and resuspended in 10 volumes of Tris buffer (50 mM Tris HCL, pH 7.4, 1 mM EGTA) and incubated at 37°C for 30 minutes in a shaking water bath. The suspension was centrifuged at 4°C at 30,000 x g for 30 minutes and the resulting pellet washed in 10 volumes of Tris buffer for a total of three additional centrifugations and washes. […] Protein concentration was determined by the Lowry method and the final suspension was adjusted to 10 mg of protein/ml, aliquoted and stored at -90°C. Particulates were also prepared for β2 receptors using the identical procedure except the final protein concentration was adjusted to 0.1 mg/ml. • BRAIN ALPHA-2 RECEPTORS: Membranes of mongrel dogs were harvested from the canine frontal cortex and prepared as described above with respect to the lungs, except that the final membrane protein concentration was adjusted to 0.5 mg/ml.
Nonspecific binding was determined for each concentration point in separate incubations using 10 µM phentolamine. Each experimental point was determined in triplicate. […] All binding assay incubations were terminated by rapid dilution with 2 ml of ice-cold wash buffer (50 mM Tris-HCl, pH 7.4) and filtration through FP-100 Whatman GF/B fired filters (Biomedical Research & Development Lab, Gaithersburg, MD) using a Brandel receptor-binding harvester. The filters were washed twice more with 4 ml of wash buffer and then added to 6 ml Cytoscint (ICN, Costa Mesa CA) for liquid scintillation counting (Barnes et al., 23 MOL. PHARMACOL. 570-75 (1983)). […] Nonspecific binding was determined in separate incubations in the presence of 10 µM phentolamine. The final concentration of p-iodoclonidine was 44-45 pM in competition studies and between 50 pM and 10 nM in saturation experiments. Bound and free p-^125 iodoclonidine were separated and the bound quantitated as described below for the ICYP assays. […] Nonspecific binding was determined in separate incubations in the presence of 2 µM d,I-propranolol. Each experimental point was determined in triplicate. […] Incubations were terminated as described above for the α1 assays. Filters were placed into polyethylene tubes and the bound ligand was determined by gamma spectrometry(Sano et al., 52 LIFE SCIENCES 1063-70 (1993)).
All data were analyzed with the aid of microcomputer nonlinear curve fitting programs (PRISM 2.0, Graphpad Software, San Diego CA).
The receptors resident in each of the three membrane preparations were evaluated by standard saturation analysis following the addition of increasing concentrations of the appropriate radioligand.
The radioligand added for subsequent α2-displacement assays was adjusted to evaluate only the high affinity receptor. Contributions from p-iodoclonidine binding to imidazoline receptors in the α2- displacement assay was evaluated with epinephrine.

[4] = Dosage required to raise mean arterial pressure (MAP) by 10% in dogs; assay type: in vivo; conditions: experimentally determined
Experimental: (§1) Nasal airway pressure was measured using a Validyne pressure transducer (Validyne Engineering, Northridge, CA) with a 2.25 cm H2O range membrane connected to a multipen recorder (Grass Instruments, Quincy, MA). Air was passed through an in-line direct measure flow meter (Gilmont Instruments, Barrington, IL) connected to the nasal opening cannula. Pressure was measured in the line with a constant flow rate (150 ml/min) of air. Drugs were directly injected into the jugular vein using a 30 gauge needle. All injections were of a constant 0.1 ml volume. In the congestion challenged groups congestion was achieved by an intranasal administration of histamine (50 mM, 0.02 ml/nostril). The histamine was expelled after 2 minutes with a short nasal cannula airflow and subsequent enantiomeric drug doses were directly injected into the jugular vein. The dosage chosen for each drug was the amount needed to increase the mean arterial pressure (MAP) of the animal by 10%; this dosage served as the "100%" dose for the initial nasal airway studies. […] The dosage required for rats was calculated by proportionately adjusting the experimentally determined dog dosage to account for the lesser weight of the rats.

[5] = Rat dosage calculated from the dog dosage that raises MAP by 10%; assay type: in vivo; conditions: calculated from the dog dosage by proportionately decreasing for the lesser weight of the rat; absolute dosage
Experimental: as §1

[6] = Nasal airway pressure (decongestant activity) in normal and histamine-challenged rats; assay type: in vivo, Sprague Dawley rats; conditions: for Mean Decrease in Nasal Airway Pressure / effect on normal airway decongestion (in words): rats; for Mean Decrease in Nasal Airway Pressure: mean ± standard error; for effect on normal airway decongestion (in words): 75% dose; for Post Drug nasal airway pressure: 100% dose into the jugular vein; for %Change in nasal airway pressure: 100% dose
[7] = test system: Male Swiss-Webster mice; assay: H1 antihistamine (triprolidine) interaction studies, locomotor activity; conditions: for interaction with triprolidine pretreatment (central nervous system stimulation, horizontal movement): pretreatment with 0.01, 0.1, or 1.0 mg/kg triprolidine 20 minutes before the sympathomimetic
[8] = Mean arterial blood pressure after the 75% dose in rats
[9] = biological target: T1, β2-receptors (Canis lupus familiaris, UniProt P54833); assay: Beta-2 binding, 125iodocyanopindolol (ICYP), canine lung membranes; parameters: species or system mongrel dogs
T1 construct: The lungs of mongrel dogs were separated from cartilaginous airways and major blood vessels; from tissue; host or cells: mongrel dog lung membranes
T1 sequence (P54833 whole entry): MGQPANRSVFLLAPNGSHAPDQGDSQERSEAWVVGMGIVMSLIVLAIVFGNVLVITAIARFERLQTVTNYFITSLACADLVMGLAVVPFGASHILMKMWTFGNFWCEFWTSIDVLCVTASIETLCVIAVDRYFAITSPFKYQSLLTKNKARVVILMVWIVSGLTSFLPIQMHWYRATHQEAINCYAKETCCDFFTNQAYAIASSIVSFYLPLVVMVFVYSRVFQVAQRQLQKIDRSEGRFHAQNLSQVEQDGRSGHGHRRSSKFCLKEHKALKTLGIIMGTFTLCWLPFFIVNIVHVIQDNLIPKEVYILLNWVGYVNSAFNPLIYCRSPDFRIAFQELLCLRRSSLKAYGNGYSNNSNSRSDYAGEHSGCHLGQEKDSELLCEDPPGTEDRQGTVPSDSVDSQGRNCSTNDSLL

[10] = 5% of the dose that increased canine resting mean arterial pressure 10%
[11] = 10% of the dose that increased canine resting mean arterial pressure 10%
[12] = 25% of the dose that increased canine resting mean arterial pressure 10%
[13] = 50% of the dose that increased canine resting mean arterial pressure 10%
[14] = histamine-challenged rats (50 mM, 0.02 ml/nostril)
[15] = histamine-challenged rats, relative to post-histamine level
[16] = non-histamine-challenged rats, relative to control

Row | Compound | ED50 [1] [mg/kg] | locomotor stimulant effects, time course (in words) [1] | pKi [2] | pKi [3] | pIC50 [3] | Stimulation Efficacy [1] | Dosage of Enantiomer, Dog: dosage required to raise MAP by 10% [4] [µg/kg] | Dosage of Enantiomer, Rat [5] [µg] | Mean Decrease in Nasal Airway Pressure [6, 10] | Mean Decrease in Nasal Airway Pressure [6, 11] | Mean Decrease in Nasal Airway Pressure [6, 12] | Mean Decrease in Nasal Airway Pressure [6, 13] | Post Drug nasal airway pressure [6, 14] [mm water] | %Change in nasal airway pressure [6, 15] [%] | Post Drug nasal airway pressure ([6]; non-histamine-challenged rats) [mm H2O] | %Change in nasal airway pressure [6, 16] [%] | interaction with triprolidine pretreatment (central nervous system stimulation, horizontal movement) [7] | other results
1 | CC(N)Cc1ccccc1 (single isomer, unassigned; (+)) [(+)-amphetamine] | 1.3 | dose- and time-dependent increase in the distance traversed |  |  |  |  |  |  |  |  |  |  |  |  |  |  |  | 
2 | CN[C@H](C)[C@@H](O)c1ccccc1 [(+)-ephedrine] | 84.9 | small increase in locomotor activity | 4.40 | […] | […] | […] | […] | 60 | […] | […] | […] | […] | […] | […] | 7 ± 0.9 | […] | No such central nervous system stimulation | effect on normal airway decongestion (in words) [6]: approximately the same efficacious effect on normal airway decongestion
3 | CN[C@@H](C)[C@@H](O)c1ccccc1 [(+)-pseudoephedrine] | 12.6 | Little or no stimulant effects | […] | […] | […] | […] | […] | 60 | […] | […] | […] | […] | […] | -36.7 ±2.7 | 7 ± 0.9 | […] | increased horizontal movement | 
4 | CN[C@@H](C)[C@H](O)c1ccccc1 [(-)-ephedrine] | […] | Dose dependent increases in locomotor activity of slower onset and longer duration | […] | […] | […] | […] | […] | […] | […] | […] | […] | […] | 6.4 ±0.6 | […] | 6 ± 0.5 | […] | increased horizontal movement | effect on normal airway decongestion (in words) [6]: approximately the same efficacious effect on normal airway decongestion; increase in blood pressure (in words) [8]: slightly greater (though significant) increase in blood pressure than (+)-ephedrine
5 | CNC[C@H](O)c1cccc(O)c1 [(-)-phenylephrine] |  |  | 5.52 |  |  | 0 | 10 | 3 to 5 | -1.6 ± 0.9 | -4.8 ± 0.8 | -12.1 ± 2.3 | -5.2 ± 1.6 | 10.5 ±2.1 | -22.3 ±8.5 | 4 ± 0.2 | -20.3 ± 4.3 |  | pIC50 [2]: 5.15
6 | CNC[C@H](O)c1ccc(O)c(O)c1 [Epinephrine, epinephrine] |  |  |  |  |  |  |  |  |  |  |  |  |  |  |  |  |  | displacement of bound p-iodoclonidine ([3]; check for binding to imidazoline receptors in the α2-displacement assay): easily displaced all bound p-iodoclonidine
7 | CC(C)(C)NCC(O)COc1cccc2[nH]c(C#N)c(I)c12 (stereo not shown) [ICYP, iodocyanopindolol] |  |  |  |  |  |  |  |  |  |  |  |  |  |  |  |  |  | pKd ([9]; Saturation Analysis, Run 1): 11.02; pKd ([9]; Saturation Analysis, Run 2): 11.03; pKd ([9]; Saturation Analysis, Summary): 11.02; pKd ([9]; Scatchard Analysis, Run 1): 11.00; pKd ([9]; Scatchard Analysis, Run 2): 11.11; pKd ([9]; Scatchard Analysis, Summary): 11.05
8 | CC(C)(C)NCC(O)COc1cccc2[nH]c(C#N)c([125I])c12 (stereo not shown) [ICYP, iodocyanopindolol] |  |  |  |  |  |  |  |  |  |  |  |  |  |  |  |  |  | Bmax ([9]; Saturation Analysis, Run 1): 149 femtomoles per mg protein; Bmax ([9]; Saturation Analysis, Run 2): 142 femtomoles per mg protein; Bmax ([9]; Saturation Analysis, Summary): 146 femtomoles per mg protein; Bmax ([9]; Scatchard Analysis, Run 1): 150 femtomoles per mg protein; Bmax ([9]; Scatchard Analysis, Run 2): 139 femtomoles per mg protein; Bmax ([9]; Scatchard Analysis, Summary): 145 femtomoles per mg protein
9 | Clc1cc(I)cc(Cl)c1NC1=NCCN1 [p-iodoclonidine] |  |  |  |  |  |  |  |  |  |  |  |  |  |  |  |  |  | pKd ([3]; Saturation Analysis, read-out: Kd 1 (high affinity)): 9.82; pKd ([3]; Saturation Analysis, read-out: Kd 2 (high affinity)): 8.52; pKd ([3]; Scatchard Analysis, read-out: Kd 1 (high affinity)): 9.82; pKd ([3]; Scatchard Analysis, read-out: Kd 2 (low affinity)): 9.06
10 | Cc1ccc(/C(=C\CN2CCCC2)c2ccccn2)cc1 [triprolidine] |  |  |  |  |  |  |  |  |  |  |  |  |  |  |  |  |  | effect on horizontal distance, triprolidine alone ([7]; 0.25 to 25 mg/kg, injected immediately prior to testing, 2-hour test period): failed to affect horizontal distance; effect on locomotion, triprolidine alone ([7]; 50 and 100 mg/kg, beginning within 10 minutes, lasting 30 to 40 minutes): Dose-dependent depression of locomotion
